Data taken from ChEMBL document CHEMBL3217605, “Synthesis, microbial transformation, and pharmacological evaluation of 4,5-dihydronaphtho[2,1-b]furan-2-ones and related analogues” (Medchemcomm, 2013).
Activity calls are given as the source filed them. No cut-off for these calls is given here.

Columns and labels:
MDA-MB-231 [1] = experiment: Cytotoxicity against human MDA-MB-231 cells at 10 to 30 uM; format: cell-based; conditions: mda-mb-231, 30 µM
MDA-MB-231 [2] = experiment: Antimigratory activity against human MDA-MB-231 cells assessed cell migration level at 30 uM by wound healing assay; format: functional
MDA-MB-231 [3] = experiment: Antimigratory activity against human MDA-MB-231 cells assessed cell migration level at 10 uM by wound healing assay; format: functional
MDA-MB-468 = experiment: Growth inhibition of human MDA-MB-468 cells assessed as cell growth at 10 uM after 48 hrs by SRB assay; format: functional; conditions: MDA-MB-468, 48 h, read-out: Activity
T47D = experiment: Growth inhibition of human T47D cells assessed as cell growth at 10 uM after 48 hrs by SRB assay; format: functional; conditions: read-out: Activity
MCF7 = experiment: Growth inhibition of human MCF7 cells assessed as cell growth at 10 uM after 48 hrs by SRB assay; format: functional; conditions: MCF7, 48 h, read-out: Activity
[4] = Growth inhibition of human UACC62 cells assessed as cell growth at 10 uM after 48 hrs by SRB assay; format: functional; conditions: UACC-62, 48 h, read-out: Activity
SK-MEL-5 = experiment: Growth inhibition of human SK-MEL-5 cells assessed as cell growth at 10 uM after 48 hrs by SRB assay; format: functional; conditions: SK-MEL-5, 48 h, read-out: Activity
M14 = experiment: Growth inhibition of human M14 cells assessed as cell growth at 10 uM after 48 hrs by SRB assay; format: functional; conditions: M14, 48 h, read-out: Activity
Malme-3M = experiment: Growth inhibition of human MALME-3M cells assessed as cell growth at 10 uM after 48 hrs by SRB assay; format: functional; conditions: read-out: Activity
PC-3 = experiment: Growth inhibition of human PC3 cells assessed as cell growth at 10 uM after 48 hrs by SRB assay; format: functional; conditions: PC-3, 48 h, read-out: Activity
RPMI-8226 = experiment: Growth inhibition of human RPMI8226 cells assessed as cell growth at 10 uM after 48 hrs by SRB assay; format: functional; conditions: RPMI-8226, 48 h, read-out: Activity
K562 = experiment: Growth inhibition of human K562 cells assessed as cell growth at 10 uM after 48 hrs by SRB assay; format: functional; conditions: K562, 48 h, read-out: Activity
HL-60(TB) = experiment: Growth inhibition of human HL-60(TB) cells assessed as cell growth at 10 uM after 48 hrs by SRB assay; format: functional; conditions: HL-60, 48 h, read-out: Activity
[5] = Growth inhibition of human NCI60 cells assessed as mean cell growth at 10 uM after 48 hrs by SRB assay; format: functional; parameters: scale not given: the % may be the effect or the level left
[6] = Anti-neuroinflammatory activity in LPS-induced activated rat Microglia cells assessed as reduction in super oxide anion radical generation; format: functional
[7] = Anti-neuroinflammatory activity in LPS-induced activated rat Microglia cells assessed as reduction in TXB2 release; format: functional
Microglia [8] = experiment: Anti-neuroinflammatory activity in LPS-induced activated rat Microglia cells assessed as reduction in TXB2 release at 10 uM; format: functional
Microglia [9] = experiment: Anti-neuroinflammatory activity in LPS-induced activated rat Microglia cells assessed as reduction in super oxide anion radical generation at 10 uM; format: functional
[10] = Toxicity in LPS-induced activated rat Microglia cells assessed as LDH release at 0.1 to 10 uM
[11] = Toxicity in LPS-induced activated rat Microglia cells assessed as LDH release at 10 uM

Row | Compound | Activity (MDA-MB-231 [1]) | Activity (MDA-MB-231 [2]) | Activity (MDA-MB-231 [3]) | inhibition (Microglia [8]) | inhibition (Microglia [9]) | Activity [10] | other results
1 | C=CCN1C(=O)C(c2ccccc2)=C2c3cc(OC)ccc3CCC21 (centres undefined) | Non-toxic | 32.9% | 47.8% | inactive | inactive | Non-toxic | growth at 10 µM (MDA-MB-468): 36.3%; growth at 10 µM (T47D): 40.7%; growth at 10 µM (MCF7): 61.5%; growth at 10 µM [4]: 35.3%; growth at 10 µM (SK-MEL-5): 40.9%; growth at 10 µM (M14): 46.7%; growth at 10 µM (Malme-3M): 0.19%; growth at 10 µM (PC-3): 25.7%; growth at 10 µM (RPMI-8226): 11.5%; growth at 10 µM (K562): 28.3%; growth at 10 µM (HL-60(TB)): 34.9%; Activity [5]: 59.8%; IC50 [6]: 1000 nM; IC50 [7]: 1000 nM
2 | COc1ccc2c(c1)C1=C(c3ccccc3)C(=O)OC1CC2 (centres undefined) | Non-toxic | 53.2% | 76.7% |  | inactive | Non-toxic | growth at 10 µM (MDA-MB-468): 27.4%; growth at 10 µM (T47D): 30.9%; growth at 10 µM (MCF7): 59.5%; growth at 10 µM [4]: 35.4%; growth at 10 µM (SK-MEL-5): 48.7%; growth at 10 µM (M14): 64.9%; growth at 10 µM (Malme-3M): 35.9%; growth at 10 µM (PC-3): 32%; growth at 10 µM (RPMI-8226): 18.1%; growth at 10 µM (K562): 42.1%; growth at 10 µM (HL-60(TB)): 53%; Activity [5]: 65.7%; IC50 [7]: 1000 nM
3 | COc1ccc2c(c1)C1=C(C)C(=O)OC1CC2 (centres undefined) | Non-toxic | 47.8% | 71.4% | inactive | inactive | Non-toxic | growth at 10 µM (MDA-MB-468): 40.8%; growth at 10 µM (T47D): 64.3%; growth at 10 µM (MCF7): 65.2%; growth at 10 µM [4]: 57.1%; growth at 10 µM (SK-MEL-5): 65.8%; growth at 10 µM (M14): 63.7%; growth at 10 µM (Malme-3M): 35.4%; growth at 10 µM (PC-3): 43%; growth at 10 µM (RPMI-8226): 20.7%; growth at 10 µM (K562): 54.2%; growth at 10 µM (HL-60(TB)): 74.2%; Activity [5]: 73.9%
4 | COc1ccc2c(c1)C1=C(CO)C(=O)OC1CC2 (centres undefined) | Non-toxic | 61% | 81.8% | inactive | inactive | Non-toxic | 
5 | COc1ccc2c(c1)[C@@H]1[C@H](CC2)OC(=O)[C@@H]1c1ccccc1 (relative stereo) | Non-toxic | 48.4% | 90.7% | inactive | inactive | Non-toxic | 
6 | COc1ccc2c(c1)C1=C(c3ccccc3)C(=O)OC1C[C@H]2O (some centres undefined) | Non-toxic | 45.9% | 54.4% | inactive | inactive | Non-toxic | 
7 | COc1cccc2c1CCC1OC(=O)C(C)=C21 (centres undefined) |  |  |  |  |  |  | Activity [11]: Toxic
8 | COc1cccc2c1CC[C@@H]1OC(=O)[C@H](C)[C@H]21 | Non-toxic | 68.4% | 87.6% | inactive | inactive | Non-toxic | 
9 | COc1ccc2c(c1)C1=C(C)C(=O)OC1C[C@H]2O (some centres undefined) | Non-toxic | 42.5% | 51.6% | inactive | inactive | Non-toxic | 
10 | NC(=O)Cc1ccccc1 | Non-toxic | 70.4% | 94.5% | inactive | inactive | Non-toxic | 
11 | COc1ccc2c(c1)[C@@H]1[C@H](CC2)OC(=O)[C@H]1c1ccccc1 (relative stereo) | Non-toxic | 45.7% | 100% | inactive | inactive | Non-toxic | 
